# Assay results as given in BindingDB's records for doi:10.1016/j.bmcl.2003.08.015 (The University of Birmingham, 2003).
# Target: T1, 3-oxoacyl-[acyl-carrier-protein] synthase 3 (Mycobacterium tuberculosis (strain ATCC 25618 / H37Rv), UniProt P9WNG3)
# T1 sequence (P9WNG3 whole entry): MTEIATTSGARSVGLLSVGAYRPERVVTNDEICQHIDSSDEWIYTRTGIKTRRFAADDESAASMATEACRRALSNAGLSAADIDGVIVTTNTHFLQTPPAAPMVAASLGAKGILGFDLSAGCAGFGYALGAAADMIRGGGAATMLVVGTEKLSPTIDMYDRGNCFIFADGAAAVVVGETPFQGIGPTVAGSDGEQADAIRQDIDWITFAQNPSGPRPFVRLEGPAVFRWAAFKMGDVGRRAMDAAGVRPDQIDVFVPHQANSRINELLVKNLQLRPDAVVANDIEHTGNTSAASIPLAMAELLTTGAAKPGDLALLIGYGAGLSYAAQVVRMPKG
# Assay: ChEBML_37595
# From the text: In vitro inhibitory activity against the recombinant Mycobacterium tuberculosis Beta-ketoacyl-ACP synthase III mtFabH condensing enzyme.
row,SMILES,IC50 [µM]
1,"CC1C(=O)SC(C)(Cc2cccc(Oc3ccccc3)c2)C1=O (configuration not stated) [4-Hydroxy-3,5-dimethyl-5-(3-phenoxy-benzyl)-5H-thiophen-2-one]",52
2,"Cc1ccc(-c2ccc(CC3(C)SC(=O)C(C)C3=O)cc2)cc1 (configuration not stated) [4-Hydroxy-3,5-dimethyl-5-(4'-methyl-biphenyl-4-ylmethyl)-5H-thiophen-2-one]",52
